Here are results for nine compounds from patent US10807932B2, “Benzosuberene analogues and related compounds with activity as anticancer agents” (Baylor University, priority 2018, dated 2020).

Values joined by “and” are separate entries in the source; they are usually repeats but may differ in a detail not shown here. Identical values can stand only once. “Also recorded” adds a separate entry of the source. Bounds are passed on as bounds.

Usually IC50 stands for the concentration needed to halve the response being measured. A word on the GI50: it is the concentration at which growth is held to half of that of the control. The low end stands for more potent growth inhibition, the high end for less potent growth inhibition.

The target in data set [1] is T1, purified bovine brain tubulin (Bos taurus, UniProt P81947+Q6B856).
T1 construct: purified bovine brain tubulin; from tissue; host or cells: bovine brain
Put plainly: Inhibition of tubulin polymerization (turbidimetric, cell-free). It counts as biochemical. The following applies: for IC50: 10 μM tubulin, extent of polymerization after 20 min at 30° C., read-out: Inhibition of tubulin polymerization IC50 (μM) ± SD; for inhibition of tubulin polymerization (in words): cell-free assay. The procedure: Inhibition of Tubulin Polymerization.
Tubulin polymerization was evaluated in 0.25 mL reaction mixtures (final volume) containing 1 mg/mL (10 μM) purified bovine brain tubulin, 0.8 M monosodium glutamate (pH 6.6), 4% (v/v) dimethyl sulfoxide, 0.4 mM GTP, and different compound concentrations. All components except GTP were preincubated for 15 min at 30° C. in 0.24 mL. The assay mixtures were cooled to 0° C., and 10 μL of 0.01 M GTP was added to each sample. Reaction mixtures were transferred to cuvettes held at 0° C. in Beckman DU-7400 and DU-7500 spectrophotometers equipped with electronic temperature controllers. The temperature was increased to 30° C., over about 30 s, and polymerization was followed turbidimetrically at 350 nm for 20 min.

For data set [2], the system named is SK-OV-3 (ovarian) cancer cell line. The data set can be described thus: Sulforhodamine B (SRB) growth inhibition assay, SK-OV-3. The following applies: 48 h treatment. It counts as cell-based, human. The text has this:
(§1) Cell Lines and Sulforhodamine B (SRB) Assay.
(§2) The sulforhodamine B (SRB) assay was used to assess growth inhibition of human cancer cells, as previously described. DU-145, SK-OV-3, and NCI-H460 cancer cell lines (obtained from ATCC) were maintained in T75 flasks (Corning) using high glucose DMEM supplemented with 10% fetal bovine serum (Gibco)/1% gentamicin sulfate for a maximum of 15 passages. For these experiments, cells were trypsinized, counted, and plated at 7000-8000 cells/well into 96-well plates (Corning) and incubated for 24 h at 37° C. in a humidified incubator in a 5% CO2 atmosphere. Compounds to be tested were dissolved in DMSO to generate a 10 mg/mL stock solution, and serial dilutions added in media to the plates. Doxorubicin (Sigma-Aldrich) and paclitaxel (Tokyo Chemical) were used as positive controls. After a 48 h treatment, the cells were fixed with trichloroacetic acid (10% final concentration), washed, dried, stained with SRB dye, washed to remove excess dye, and dried. SRB dye was solubilized, and absorbances were measured at wavelength 540 nm and normalized to values at wavelength 630 nm using an automated Biotek plate reader.

Data set [3] relates to NCI-H460 (lung) cancer cell line. Put plainly: Sulforhodamine B (SRB) growth inhibition assay, NCI-H460. It counts as cell-based, human. The following applies: 48 h treatment.
Excerpt: as §1, §2

Data set [4] has as its system DU-145 (prostate) cancer cell line. The data set can be described thus: Sulforhodamine B (SRB) growth inhibition assay, DU-145. It counts as cell-based, human. The following applies: 48 h treatment.
Excerpt: as §1, §2

The test system of data set [5] is PC3-DAB2IP-luc human prostate tumor xenograft. The data set can be described thus: In vivo vascular disruption by dynamic bioluminescence imaging (BLI). Details: species or system Male Copenhagen rats. The following applies: for vascular response by BLI light emission (in words): phosphate. An excerpt: In Vivo Vascular Disruption.
The human prostate cancer cell line (PC3) was modified by knock down of a tumor suppressor protein PC3-DAB2IP and further modified by transfection with a firefly luciferase reporter, as described in detail previously. Male Copenhagen rats (originally from Charles River and bred at UT Southwestern) were inoculated subcutaneously with 5×10^5 PC3-DAB2IP-luc cells mixed with 30% Matrigel® in the right thigh. These rats were approximately 6 weeks old and weighed between 100-120 g on date of implantation. Tumors were allowed to grow to a diameter of at least 1 cm before treatment commenced. Three rats were treated with VDA prodrug 89 (25 mg/mL in saline) administered IP. Rat 1 received 10 mg/kg followed by 40 mg/kg 24 h later and CA4P (30 mg/kg at 20 mg/mL in saline) was administered IP as a control 4 days later. Rat 2 received a single dose of 40 mg/kg of VDA prodrug 89, and rat 3 received 80 mg/kg of 89. Bioluminescence imaging (BLI) was performed before treatment (baseline), and at 4 and 24 h after treatment using an IVIS Spectrum® (Perkin-Elmer). Briefly, anesthetized rats (breathing oxygen with 3% isoflurane, Henry Schein Inc.) were injected subcutaneously in the foreback neck region with 120 mg/kg D-luciferin sodium salt (Gold Biotechnology, St. Louis, Mo.) and imaged over a time course of about 30 min. Fresh luciferin was administered at each time point. The resulting light intensity time curves were analyzed using Living Image® Software and light emission measured for a region of interest encompassing the tumor. All animal procedures were carried out in accordance with the Guide for the Care and Use of Laboratory Animals as adopted and promulgated by the U.S. National Institutes of Health as well as the Institutional Animal Care and Use Committee approved protocols (APN 2017-102168) at the University of Texas Southwestern Medical Center.
Ultimately, VDAs will be used in vivo, and thus it is crucial to understand both efficacy of vascular disruption and potential off target toxicity in vivo. As a preliminary investigation, the extent of vascular damage was assessed in a human prostate tumor line in rats treated with the water-soluble prodrug salt 89 compared to CA4P as control. Many imaging methods have been developed to assess vascular disruption non-invasively in vivo. Dynamic bioluminescence imaging (BLI) was favored for initial validation of VDA activity since it provides a fast, non-invasive and easy method and allows comparison of repeat or sequential investigations. BLI does require the use of cells transfected to express luciferase (luc), but these are commonly available and we have used this approach extensively as have others. The human prostate cancer PC3 line was used, in which the tumor suppressor protein DAB2IP had been knocked down and luciferase introduced. BLI requires administration of luciferin substrate, which readily crosses membranes and is carried throughout the vasculature. The measurement of light emission dynamics is related to vascular delivery of the luciferin substrate, and thus it provides a measure of vascular patency. Disruption of tumor vasculature blocks delivery of the substrate and consequently results in a quantifiable decrease in bioluminescent signal.

The conditions of data set [6]: 30 mg/kg, rats, shown previously; cited from earlier work.
For the next data set, the system named is tubulin. The data set can be described thus: Colchicine binding assay (inhibition of [3H]colchicine binding to tubulin). The following applies: 1.0 μM tubulin, 5.0 μM [3H]colchicine. The procedure:
Colchicine Binding Assay.
Inhibition of [^3H]colchicine binding to tubulin was measured in 0.1 mL reaction mixtures, each containing 1.0 μM tubulin, 5.0 μM [^3H]colchicine (Perkin-Elmer), 5% (v/v) dimethyl sulfoxide, […], and components that stabilize the colchicine binding activity of tubulin (1.0 M monosodium glutamate [adjusted to pH 6.6 with HCl in a 2.0 M stock solution], 0.5 mg/mL bovine serum albumin, 0.1 M glucose-1-phosphate, 1.0 mM MgCl2, and 1.0 mM GTP). […] Reactions were stopped with 2.0 mL of ice-cold water, with the reaction mixtures being placed on ice. Each diluted sample was poured onto a stack of two DEAE-cellulose filters (GE Biomedical), followed by 3 successive 2 mL aliquots of ice-cold water. A reduced vacuum was used to remove excess water from the filters, which were washed three times with 2 mL water and placed into vials containing 5 mL of Biosafe II scintillation cocktail. Samples were counted 18 h later in a Beckman scintillation counter. Samples with inhibitors were compared to samples with no inhibitor, and percent inhibition was determined, correcting all values for the amount of radiolabel bound to the filters in the absence of tubulin.

T1 sequence (Q6B856 whole entry): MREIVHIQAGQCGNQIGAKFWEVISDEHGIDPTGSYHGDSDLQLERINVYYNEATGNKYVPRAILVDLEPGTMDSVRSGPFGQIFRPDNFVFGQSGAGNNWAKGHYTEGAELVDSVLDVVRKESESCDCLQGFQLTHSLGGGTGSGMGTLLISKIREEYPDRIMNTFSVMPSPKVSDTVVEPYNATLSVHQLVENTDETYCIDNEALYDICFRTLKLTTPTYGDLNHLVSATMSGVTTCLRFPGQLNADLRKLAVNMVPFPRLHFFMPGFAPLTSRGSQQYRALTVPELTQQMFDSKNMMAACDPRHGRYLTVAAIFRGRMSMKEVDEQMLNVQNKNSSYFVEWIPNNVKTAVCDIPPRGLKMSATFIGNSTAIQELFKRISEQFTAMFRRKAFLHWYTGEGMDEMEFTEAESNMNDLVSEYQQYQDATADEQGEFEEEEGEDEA
T1 sequence (P81947 whole entry): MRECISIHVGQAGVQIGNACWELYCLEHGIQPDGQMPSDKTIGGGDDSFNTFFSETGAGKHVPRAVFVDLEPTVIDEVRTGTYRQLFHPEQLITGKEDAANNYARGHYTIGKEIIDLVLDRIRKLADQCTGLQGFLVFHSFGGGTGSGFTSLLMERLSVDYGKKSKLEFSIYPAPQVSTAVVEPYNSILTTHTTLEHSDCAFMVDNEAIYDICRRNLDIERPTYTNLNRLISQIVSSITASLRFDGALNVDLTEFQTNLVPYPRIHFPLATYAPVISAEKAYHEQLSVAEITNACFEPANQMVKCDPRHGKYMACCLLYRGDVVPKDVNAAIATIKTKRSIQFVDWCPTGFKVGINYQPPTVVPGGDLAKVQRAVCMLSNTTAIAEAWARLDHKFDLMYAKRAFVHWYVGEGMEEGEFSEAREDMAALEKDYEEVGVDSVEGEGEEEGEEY

With `COc1ccc(/C=C\c2cc(OC)c(OC)c(OC)c2)cc1OP(=O)(O)O` [CA4P, combretastatin A-4 phosphate, reference compound], the IC50 in data set [1] was more than 40 µM. Further, the GI50 in data set [2] came out at 1.19 nM; in data set [3], 1.94 nM; in data set [4] it was 3.23 nM. Moreover, in data set [5] (30 mg/kg IP, given 4 days after 89 to the same rat), the “vascular response by BLI (in words)” value was “very similar effect”. Moreover, the “vascular shutdown (in words)” value in data set [6] is “extensive vascular shutdown”.
Consider `CCOC(=O)c1c(OC)ccc2c1CCCC=C2c1cc(OC)c(OC)c(OC)c1` [Compound 47, Ethyl 3-methoxy-9-(3,4,5-trimethoxyphenyl)-6,7-dihydro-5H-benzo[7]annulene-4-carboxylate], for which the IC50 in data set [1] was found to be 1 ± 0.07 µM. Besides, the “% Inhibition of colchicine binding ± SD” value in the data set with tubulin (compound at 5 μM) is 47 ± 1 (5 μM) %. Further, the GI50 in data set [2] (Homo sapiens, SK-OV-3) amounted to 299 nM; in data set [3] (Homo sapiens, NCI-H460) it was 353 nM; in data set [4] (Homo sapiens, DU-145) it was 631 nM.
In the case of `COc1cc(C2=CC(O)CCc3c2ccc(OC)c3OC)cc(OC)c1OC` (stereo not shown) [Compound 57, 3,4-Dimethoxy-9-(3,4,5-trimethoxyphenyl)-6,7-dihydro-5H-benzo[7]annulen-7-ol], in data set [1], the IC50 was determined as 3.8 ± 0.5 µM. Further, in data set [1], the “inhibition of tubulin polymerization (in words)” value (“inhibition … (in words)” for short) was “reduced inhibition of tubulin polymerization”. For the same compound, the “% Inhibition of colchicine binding ± SD” value in the data set on tubulin (compound at 5 μM) is given as 28 ± 4 (5 μM) %. Further, the GI50 came to 263 nM in data set [2] (Homo sapiens, SK-OV-3); 432 nM in data set [3] (Homo sapiens, NCI-H460); 439 nM in data set [4] (Homo sapiens, DU-145).
Turning to `COc1cc(C2(O)C=CCCc3c2ccc(OC)c3OC)cc(OC)c1OC` (stereo not shown) [Compound 76, 1,2-Dimethoxy-5-(3,4,5-trimethoxyphenyl)-8,9-dihydro-5H-benzo[7]annulen-5-ol], the IC50 in data set [1] was more than 20 µM. Further, in data set [1], the “inhibition … (in words)” value is listed as “lack of tubulin activity”. For the same compound, in the data set on tubulin (compound at 5 μM), the “% Inhibition of colchicine binding ± SD” value was 0 (5 μM) %. The GI50 was 27200 nM in data set [2] (Homo sapiens, SK-OV-3); 70500 nM in data set [3] (Homo sapiens, NCI-H460); 26000 nM in data set [4] (Homo sapiens, DU-145).
Turning to `COc1cc(C2CCc3c(ccc(OC)c3OC)C(=O)C2)cc(OC)c1OC` (stereo not shown) [Compound 77, 1,2-Dimethoxy-7-(3,4,5-trimethoxyphenyl)-6,7,8,9-tetrahydro-5H-benzo[7]annulen-5-one], the IC50 in data set [1] is more than 20 µM. In data set [1], the “inhibition … (in words)” value is reported as “lack of activity”. For the same compound, in the data set with tubulin (compound at 5 μM), the “% Inhibition of colchicine binding ± SD” value is 0 (5 μM) %. Also, the GI50 came out at 5770 nM in data set [2] (Homo sapiens, SK-OV-3); 2000 nM in data set [3] (Homo sapiens, NCI-H460); 4450 nM in data set [4] (Homo sapiens, DU-145).
Take `COc1ccc2c(c1O)CC=CC=C2c1cc(OC)c(OC)c(OC)c1` [Compound 88, 3-Methoxy-9-(3,4,5-trimethoxyphenyl)-5H-benzo[7]annulen-4-ol]: in data set [1], the IC50 came out at 0.48 ± 0.08 µM. Moreover, the “% Inhibition of colchicine binding ± SD” value stood at 68 ± 1% in the data set on tubulin (compound at 0.5 μM) and 95 ± 0.8% in the data set with tubulin (compound at 5 μM). Further, the GI50 is 6.9 nM in data set [2] (Homo sapiens, SK-OV-3); 58.1 nM in data set [3] (Homo sapiens, NCI-H460); 97.6 nM in data set [4] (Homo sapiens, DU-145).
For the compound `COc1cc(C2=CC=CCc3c2ccc(OC)c3OP(=O)([O-])[O-])cc(OC)c1OC.[Na+].[Na+]` [Compound 89, Sodium 3-methoxy-9-(3,4,5-trimethoxyphenyl)-5H-benzo[7]annulen-4-yl phosphate], the IC50 in data set [1] was 16 ± 0.7 µM. The “inhibition … (in words)” value in data set [1] is “inactive”. In addition, the “% Inhibition of colchicine binding ± SD” value in the data set with tubulin (compound at 5 μM) was 45 ± 2 (5 μM) %. The GI50 turned out to be 15.3 nM in data set [2] (Homo sapiens, SK-OV-3); 29.1 nM in data set [3] (Homo sapiens, NCI-H460); 23.9 nM in data set [4] (Homo sapiens, DU-145). Also, the “vascular response by BLI light emission (in words)” value in data set [5] (10 mg/kg IP, rat) was “no vascular perturbation; also recorded: minimal change in light emission”; in data set [5] (40 mg/kg IP, 4 h, rat), “substantial vascular shutdown; also recorded: substantially diminished light emission; also recorded: revealed vascular disruption”. Besides, the “recovery of BLI signal (in words)” value in data set [5] (40 mg/kg IP, 24 h, rat) is listed as “substantial recovery by 24 h”. Also, the “appearance of the rats” value in data set [5] (40 mg/kg IP, at 48 h) is listed as “appeared healthy”. Besides, in data set [5] (80 mg/kg IP, rat), the tolerability result is listed as “well tolerated”. Moreover, the “vascular disruption (in words)” value in data set [5] (80 mg/kg IP, rat) is “did not show additional vascular disruption”.
With `COc1ccc2c(c1O)CCCC1=C2c2cc(OC)c(OC)c(OC)c2C1=O` [Compound 91, 4-Hydroxy-3,9,10,11-tetramethoxy-6,7-dihydrodibenzo[a,h]azulen-8(5H)-one], in data set [1], the IC50 was found to be 4.2 ± 0.2 µM. Further, the “% Inhibition of colchicine binding ± SD” value with tubulin (compound at 5 μM) is 45 ± 4 (5 μM) %. Also, the GI50 in data set [2] (Homo sapiens, SK-OV-3) was found to be 39.9 nM; in data set [3] (Homo sapiens, NCI-H460) it was 105 nM; in data set [4] (Homo sapiens, DU-145), 32.1 nM.
On to `COc1ccc2c(c1O)CCCC=C2c1cc(OC)c(OC)c(OC)c1` [KGP18, 3-Methoxy-9-(3,4,5-trimethoxyphenyl)-6,7-dihydro-5H-benzo[7]annulen-4-ol, reference compound], for which, in data set [1], the IC50 was ~0.85 µM and 0.85 µM. Besides, the “% Inhibition of colchicine binding ± SD” value in the data set with tubulin (compound at 1 μM) came to 73 ± 5%; in the data set on tubulin (compound at 5 μM), 95 ± 0.5%. Besides, the GI50 in data set [2] (Homo sapiens, SK-OV-3) came to 0.0543 nM; in data set [3] (Homo sapiens, NCI-H460), 0.0418 nM; in data set [4] (Homo sapiens, DU-145), 0.0249 nM.
